From patent publication US9883996B2, “Methods and compositions for enhancing skin pigmentation” (THE GENERAL HOSPITAL CORPORATION, priority 2014, dated 2018)
Entries after “also recorded” stand apart in the source; their conditions may differ.

Columns and labels:
[1] = system: Melan-A cells; assay: Measurement of eumelanin in murine melanocytes; type: cell-based
[2] = system: human skin explants; assay: Pigmentation of human skin explants treated topically or intradermally with NNT inhibitors (visual inspection, colorimeter, Fontana-Masson staining); type: cell-based; details: for microscopic pigmentation / eumelanin, Fontana-Masson staining: 50 mM, once per day for 5 consecutive days; for human skin pigmentation (darkening): daily application for 5 days
Procedure: Human skin explants obtained from subjects undergoing abdominoplasty were defatted and grown on 2% agar plates for 10 days. These explants were treated topically or intradermally with NNT inhibitors. […]
In addition, skin patches (Fitzpatrick Type II) were topically treated for 4 days with 2,3 butane-dione at the following concentrations: 0.4% w/v (˜47 mM), 0.8% w/v, 1.6% w/v, 3.12% w/v, 6.25% w/v, 12.5% w/v, and 25% w/v.

[3] = system: Dermal Fibroblasts; assay: Toxicity via ATP-based assay (Cell titer glow); details: ATP-based assay 2 days after start of treatment
[4] = system: human skin explants; assay: H&E staining of treated skin samples (inflammation, skin damage); type: cell-based; details: 50 mM, skin patches
[5] = system: human skin; assay: Cyclobutane dimer (CPD) staining of treated human skin, DNA damage; type: cell-based; details: 50 mM once per day for 5 days; for CPD formation after UVB irradiation: then 1000 mJ/cm^2 UVB, vs DMSO+UVB control
Procedure: Cyclobutane dimer (CPD) staining was performed on human skin treated with 50 mM 2,3butanedione for 5 consecutive days (treatment once per day) as a marker to assess DNA damage in the skin samples. On the fifth day, skin was irradiated with 1000 mJ/cm^2 UVB (equivalent to approximately 3 h in the sun at equatorial areas).

[6] = system: Melanocytes 2; assay: Toxicity via ATP-based assay (Cell titer glow); details: ATP-based assay 2 days after start of treatment
Procedure: (§1) Three different NNT inhibitors were tested for efficacy and toxicity in melanocytes and melanoma cells. […] Toxicity measured via ATP-based assays (Cell titer glow) 2 days after start of treatment.

[7] = system: Melanocytes 1; assay: Toxicity via ATP-based assay (Cell titer glow); details: ATP-based assay 2 days after start of treatment
Procedure: as §1

[8] = system: Keratinocytes; assay: Toxicity via ATP-based assay (Cell titer glow); details: ATP-based assay 2 days after start of treatment
[9] = system: primary melanocytes (PM) WM26 cells; assay: GSH/GSSG measurements after DCC treatment; type: cell-based, human; details: primary melanocytes WM26, 3 days after DCC treatment
Procedure: (§2) FIGS. 7A-7C show GSH/GSSG ratios 3 days after N,N-Dicyclohexylcarbodiimide (DCC) treatment. To confirm the observation by Moody et al. (Biochem J., 1983) that DCC and Butanedione inhibit NNT enzyme activity, GSH/GSSG measurements were performed in human melanoma and primary melanocytes. […] FIG. 7A, GSH and GSSG measurements in UACC257 melanoma cells. FIG. 7B, GSH and GSSG measurements in primary melanocytes (PM) WM26 cells. FIG. 7C, GSH/GSSG ratios of UACC257 melanoma and […] primary melanocytes. *, indicates significant differences (p<0.05).
(§3) In one embodiment GSH/GSSG ratios are determined using the GSH/GSSG-GLO assay commercially available from PROMEGA.

[10] = system: UACC257 melanoma cells; assay: GSH/GSSG measurements after DCC treatment; type: cell-based, human; details: 3 days after DCC treatment
Procedure: as §2, §3

[11] = system: WM26 primary melanocytes; assay: BrdU ELISA toxicity; type: cell-based, human; details: 3 days after treatment
Procedure: (§4) FIGS. 8A-8B show BrdU ELISA data 3 days after DCC treatment.
(§5) In one embodiment, the viability of a cell or the proliferation of a cell is determined using a bromodeoxyuridine (BrdU) assay. BrdU is a synthetic analog of thymidine that is commonly used in the detection of proliferating cells in living tissues. BrdU can be incorporated into the newly synthesized DNA of replicating cells (during the S phase of the cell cycle), substituting for thymidine during DNA replication. Antibodies specific for BrdU can then be used to detect the incorporated chemical, thus indicating cells that were actively replicating their DNA. BrdU assays are well known to those of skill in the art and are not described in detail herein. In some embodiments, an ATP=based measurement can be used (e.g., Cell Titer Glow™).

[12] = system: UACC 257 melanoma; assay: BrdU ELISA toxicity; type: cell-based, human; details: 3 days after treatment
Procedure: as §4, §5

CC(=O)C(C)=O [2,3 Butanedione, 2,3-butanedione]
pigmentation (eumelanin) ([1]; 2 mM): increased pigmentation | pigmentation (eumelanin) ([1]; 10 mM): increased pigmentation | microscopic pigmentation / eumelanin, Fontana-Masson staining [2]: increase in eumelanin expression | microscopic pigmentation / eumelanin, Fontana-Masson staining ([2]; listed as 2,3 BD): significant microscopic pigmentation | pigmentation compared with one-time UV-B treatment at 150 mJ/cm^2 ([2]; Fitzpatrick Type II skin patches, topical 4 days, lowest concentration 0.4% w/v (~47 mM)): darker than the pigmentation induced by a one-time UV-B treatment | pigmentation with increasing concentrations ([2]; Skin type 2 (Fitzpatrick Scale) explant, in DMSO): increase pigmentation | lowest dose at which visible changes in skin pigmentation were observed ([2]; once per day for five consecutive days, all three skin types (Fitzpatrick I-II, III-IV, V-VI), lowest dose tested): 1.2 µM | human skin pigmentation (darkening) ([2]; topical, human skin explants): visible increase of human skin pigmentation | human skin pigmentation (darkening) ([2]; topical, human skin explants, listed as 2,3 BD): significant darkening | IC50 ([3]; Fibroblast, 48 h): > 10 µM | inflammation or skin damage, H&E staining [4]: no inflammation was observed | inflammation or skin damage, H&E staining ([4]; listed as 2,3 BD): No significant inflammation or skin damage | CPD formation after UVB irradiation ([5]; listed as 2, 3, butanedione): decrease in CPD | CPD formation after UVB irradiation ([5]; listed as 2,3BD): protective role | CPD formation in the absence of UV radiation exposure ([5]; vs DMSO treated control): decrease in CPD formation | IC50 ([6]; Melanocyte, 48 h): > 10 µM | IC50 ([7]; Melanocyte, 48 h): > 10 µM | IC50 ([8]; Keratinocyte, 48 h): > 10 µM

C(=NC1CCCCC1)=NC1CCCCC1 [DCC, N,N-Dicyclohexylcarbodiimide]
pigmentation (eumelanin) ([1]; 10 mM): increased pigmentation | human skin pigmentation (darkening) ([2]; topical, human skin explants): significant darkening; also recorded: visible increase of human skin pigmentation | GSH/GSSG ratios [9]: decreased in a dose-dependent manner | GSH/GSSG ratios [10]: decreased in a dose-dependent manner | IC50 [3]: > 10 µM | cell death (BrdU ELISA) [11]: no significant induction of cell death | cell death (BrdU ELISA) [12]: no significant induction of cell death | IC50 [6]: > 10 µM | IC50 [7]: > 10 µM | IC50 [8]: > 10 µM

CCCCCCCCCCCCCCCC(=O)SCCNC(=O)CCNC(=O)[C@H](O)C(C)(C)COP(=O)(O)OP(=O)(O)OC[C@H]1O[C@@H](n2cnc3c(N)ncnc32)[C@H](O)[C@@H]1OP(=O)(O)O [Palmitoyl-CoA, palmitoyl CoA]
skin darkening after intradermal treatment ([2]; intradermal, human skin explants): induced darkening | skin penetration after topical application ([2]; topical, human skin explants): unable to penetrate | IC50 ([3]; Fibroblast, 48 h): > 10 µM | IC50 ([6]; Melanocyte, 48 h): > 10 µM | IC50 ([7]; Melanocyte, 48 h): > 10 µM | IC50 ([8]; Keratinocyte, 48 h): > 10 µM
